Results as given in PubChem BioAssay (NCI).
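Five compound concentrations were applied to cells in 96-well plates for 48 hours; endpoints were derived by simple linear interpolation of the resulting dose-response curve. GI50 is the concentration that inhibits growth by half. TGI: concentration producing complete growth inhibition.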

Tests used:
Assay in all cases: NCI-60 cell line screen, 48 h
A498 renal = test system: A498 renal
A549 NSCLC = test system: A549 NSCLC
HCT-116 colon = test system: HCT-116 colon
HOP-92 NSCLC = test system: HOP-92 NSCLC
IGROV1 ovarian = test system: IGROV1 ovarian
SF-539 CNS = test system: SF-539 CNS
SK-MEL-2 melanoma = test system: SK-MEL-2 melanoma
SK-MEL-28 melanoma = test system: SK-MEL-28 melanoma
SNB-75 CNS = test system: SNB-75 CNS
MDA-MB-231 breast = test system: MDA-MB-231 breast

SMILES: NC(N)=NS(=O)(=O)c1ccc(NC(=O)c2cccc3c(Nc4ccc(S(=O)(=O)N=C(N)N)cc4)c4ccc(Cl)cc4nc23)cc1
- TGI (A498 renal): > 100 µM
- TGI (A549 NSCLC): > 100 µM
- TGI (HCT-116 colon): > 100 µM
- TGI (HOP-92 NSCLC): 93 µM
- TGI (IGROV1 ovarian): > 100 µM
- TGI (SF-539 CNS): > 100 µM
- TGI (SK-MEL-2 melanoma): > 100 µM
- TGI (SK-MEL-28 melanoma): > 100 µM
- TGI (SNB-75 CNS): > 100 µM

SMILES: C/C(=N\N(C)C)c1sc(-n2nc(-c3ccccc3)cc2-c2ccccc2)nc1C
- TGI (A498 renal): > 100 µM
- TGI (A549 NSCLC): > 100 µM
- TGI (HCT-116 colon): > 100 µM
- TGI (HOP-92 NSCLC): > 100 µM
- TGI (IGROV1 ovarian): > 100 µM
- TGI (SF-539 CNS): > 100 µM
- TGI (SK-MEL-2 melanoma): > 100 µM
- TGI (SK-MEL-28 melanoma): > 100 µM
- TGI (SNB-75 CNS): 81.1 µM

SMILES: CCCCN(CCCC)C(=O)C(=O)CC(=O)c1ccc(Br)cc1
- TGI (A498 renal): > 100 µM
- TGI (A549 NSCLC): > 100 µM
- TGI (HCT-116 colon): > 100 µM
- TGI (HOP-92 NSCLC): > 100 µM
- TGI (IGROV1 ovarian): > 100 µM
- TGI (SF-539 CNS): > 100 µM
- TGI (SK-MEL-2 melanoma): > 100 µM

SMILES: COc1c(OC(C)=O)ccc(/C=C2\N=C(C)OC2=O)c1[N+](=O)[O-]
- TGI (A498 renal): > 100 µM
- TGI (A549 NSCLC): > 100 µM
- TGI (HCT-116 colon): > 100 µM
- TGI (HOP-92 NSCLC): > 100 µM
- TGI (IGROV1 ovarian): > 100 µM
- TGI (SF-539 CNS): > 100 µM
- TGI (SK-MEL-2 melanoma): > 100 µM
- TGI (SNB-75 CNS): > 100 µM

SMILES: Cn1nc(-c2ccccc2NC(=O)C(F)(F)F)c(=O)n(C)c1=S
- TGI (A549 NSCLC): > 100 µM
- TGI (HCT-116 colon): > 100 µM
- TGI (HOP-92 NSCLC): 50.7 µM
- TGI (IGROV1 ovarian): > 100 µM
- TGI (SF-539 CNS): 83.9 µM
- TGI (SK-MEL-2 melanoma): 60.7 µM
- TGI (SK-MEL-28 melanoma): 30.1 µM
- TGI (SNB-75 CNS): 59.4 µM

SMILES: Cc1cc(Br)cc(C)c1NC(=O)C(=O)CC(=O)c1sc(-n2nc(-c3ccccc3)cc2-c2ccccc2)nc1C
- TGI (A498 renal): > 100 µM
- TGI (A549 NSCLC): > 100 µM
- TGI (HCT-116 colon): > 100 µM
- TGI (HOP-92 NSCLC): > 100 µM
- TGI (IGROV1 ovarian): > 100 µM
- TGI (SK-MEL-28 melanoma): > 100 µM
- TGI (SNB-75 CNS): > 100 µM

SMILES: O=C1C2=C(c3ccccc31)C(c1cccc(Cl)c1)NC(=S)N2 (stereo not drawn)
- TGI (A498 renal): > 100 µM
- TGI (A549 NSCLC): > 100 µM
- TGI (HCT-116 colon): > 100 µM
- TGI (HOP-92 NSCLC): > 100 µM
- TGI (IGROV1 ovarian): > 100 µM
- TGI (SF-539 CNS): > 100 µM
- TGI (SK-MEL-2 melanoma): > 100 µM
- TGI (SK-MEL-28 melanoma): > 100 µM
- TGI (SNB-75 CNS): > 100 µM

SMILES: COc1ccc(-c2oc3cc(O)c(OC)c(O)c3c(=O)c2OC2OC(CO)C(O)C(O)C2O)cc1 (stereo not drawn)
- TGI (A549 NSCLC): > 100 µM
- TGI (HCT-116 colon): > 100 µM
- TGI (HOP-92 NSCLC): > 100 µM
- TGI (IGROV1 ovarian): > 100 µM
- TGI (SF-539 CNS): > 100 µM
- TGI (SK-MEL-2 melanoma): > 100 µM
- TGI (SK-MEL-28 melanoma): > 100 µM
- TGI (SNB-75 CNS): > 100 µM

SMILES: COC1C=C(Nc2cccc(Cl)c2)C(=O)C1 (stereo not drawn)
- TGI (A498 renal): 32.2 µM
- TGI (A549 NSCLC): 41.2 µM
- TGI (HCT-116 colon): > 100 µM
- TGI (HOP-92 NSCLC): > 100 µM
- TGI (IGROV1 ovarian): > 100 µM
- TGI (SF-539 CNS): > 100 µM
- TGI (SK-MEL-2 melanoma): > 100 µM
- TGI (SK-MEL-28 melanoma): > 100 µM
- TGI (SNB-75 CNS): > 100 µM

SMILES: CC(Cc1ccc(Cl)cc1Cl)NO (stereo not drawn)
- TGI (A498 renal): > 100 µM
- TGI (A549 NSCLC): > 100 µM
- TGI (HCT-116 colon): > 100 µM
- TGI (IGROV1 ovarian): > 100 µM
- TGI (MDA-MB-231 breast): > 100 µM
- TGI (SK-MEL-2 melanoma): > 100 µM
- TGI (SK-MEL-28 melanoma): > 100 µM
- TGI (SNB-75 CNS): > 100 µM

SMILES: C1CCC([PH+](C2CCCCC2)C2CCCCC2[PH+](C2CCCCC2)C2CCCCC2)CC1.[Au].[CH-]1CCCCC1C1CCCC[N-]1 (stereo not drawn)
- GI50 (A498 renal): 0.122 µM
- TGI (A498 renal): 0.581 µM
- GI50 (HOP-92 NSCLC): 241 nM
- TGI (HOP-92 NSCLC): 1.14 µM
- GI50 (SF-539 CNS): 337 nM
- TGI (SF-539 CNS): 1.28 µM
- GI50 (SK-MEL-2 melanoma): 351 nM
- TGI (SK-MEL-2 melanoma): 1.52 µM
- GI50 (SK-MEL-28 melanoma): 0.434 µM
- TGI (SK-MEL-28 melanoma): 1.79 µM
- GI50 (SNB-75 CNS): 194 nM
- TGI (SNB-75 CNS): 0.833 µM

SMILES: C=C(c1ccccc1N)[C@@]1(O)C[C@H](/C(=C\C)CO)C[C@@H]1NCc1ccccc1
- TGI (A498 renal): > 100 µM
- TGI (A549 NSCLC): > 100 µM
- TGI (HCT-116 colon): 28.7 µM
- TGI (HOP-92 NSCLC): 27.5 µM
- TGI (IGROV1 ovarian): > 100 µM
- TGI (SF-539 CNS): 29.9 µM
- TGI (SK-MEL-2 melanoma): 39.2 µM
- TGI (SK-MEL-28 melanoma): 33 µM
- TGI (SNB-75 CNS): 24.6 µM

SMILES: CCOC(=O)C1C=C2O[C@@H]3OC4(CCCCC4)O[C@@H]3C2[C@H]2C(=O)C=CC(=O)[C@@]12C(=O)OC (stereo partly drawn)
- TGI (A498 renal): 32.6 µM
- TGI (A549 NSCLC): 33.1 µM
- TGI (HCT-116 colon): 19.1 µM
- TGI (HOP-92 NSCLC): 26.2 µM
- TGI (IGROV1 ovarian): 27.6 µM
- TGI (SF-539 CNS): 6.16 µM
- TGI (SK-MEL-2 melanoma): 30.6 µM
- TGI (SK-MEL-28 melanoma): 30 µM
- TGI (SNB-75 CNS): 35.4 µM

SMILES: CCOC(=O)/N=c1\ss/c(=N\C(=S)N(C)C)n1-c1ccccc1
- GI50 (A498 renal): 35 µM
- TGI (A498 renal): > 100 µM
- GI50 (A549 NSCLC): > 100 µM
- TGI (A549 NSCLC): > 100 µM
- GI50 (HCT-116 colon): > 100 µM
- TGI (HCT-116 colon): > 100 µM
- TGI (HOP-92 NSCLC): 94.2 µM
- GI50 (IGROV1 ovarian): > 100 µM
- TGI (IGROV1 ovarian): > 100 µM
- TGI (SF-539 CNS): > 100 µM
- TGI (SK-MEL-2 melanoma): > 100 µM
- GI50 (SK-MEL-28 melanoma): 28.7 µM
- TGI (SK-MEL-28 melanoma): > 100 µM
- GI50 (SNB-75 CNS): 4690 nM
- TGI (SNB-75 CNS): 28.3 µM

SMILES: S=c1[nH]nc(COc2ccc(Cl)cc2)o1
- TGI (A498 renal): > 100 µM
- TGI (A549 NSCLC): > 100 µM
- TGI (HCT-116 colon): > 100 µM
- TGI (HOP-92 NSCLC): > 100 µM
- TGI (IGROV1 ovarian): > 100 µM
- TGI (SF-539 CNS): > 100 µM
- TGI (SK-MEL-28 melanoma): > 100 µM
- TGI (SNB-75 CNS): > 100 µM

SMILES: CC(C)=CC(=O)CC(=O)C(=O)Nc1ccc(C)c(C)c1
- TGI (A549 NSCLC): > 100 µM
- TGI (HCT-116 colon): > 100 µM
- TGI (HOP-92 NSCLC): > 100 µM
- TGI (IGROV1 ovarian): > 100 µM
- TGI (SF-539 CNS): > 100 µM
- TGI (SK-MEL-2 melanoma): > 100 µM
- TGI (SK-MEL-28 melanoma): > 100 µM
- TGI (SNB-75 CNS): > 100 µM
